Results from US10457943B2, “Antisense oligonucleotides for treatment of cancer stem cells” (Andes Biotechnologies Global, Inc., priority 2013, dated 2019).
Entries after “also recorded” stand apart in the source; their conditions may differ.

Tests used:
[1] = tested on: CerCa 3 primary cervical tumor cells (HPV 45); assay: Sphere formation assay, primary cervical tumor cells CerCa 3; type: cell-based, human; conditions: incubated with 45 μM cisplatin
Description: (§1) The ability of cervical cells from the SiHa cervical cancer cell line (transformed with Human Papillomavirus 16 or HPV 16) and from primary cultures of human uterine cervical cancer cells derived from patients to form spheroid bodies following treatment with antisense oligonucleotides directed to antisense non-coding chimeric mitochondrial RNA (ASncmtRNA) was determined. The assay utilized measured the numbers of spheroid bodies, also referred to herein as spheres, which are formed by cancer stem cells.
(§2) The experimental procedure and assay utilized herein measured the effect of antisense oligonucleotides that were targeted to ASncmtRNA on the number of spheres formed by cervical cancer cells (FIG. 6). Sphere formation was measured in the SiHa cervical cancer cell line and primary cultures of human cervical cancer cells derived from patients (CerCa). […]
(§3) About 1×10^5 cells resuspended in MEGM™ medium supplemented with 20 ng/ml of hEGF, hydrocortisone, insulin, GA-1000 (Lonza), 0.5×B-27 without vitamin A (Invitrogen), 20 ng/ml of FGFb (Invitrogen) without CFS were seeded on ultra-low adherence plates (Corning). Ten days later, the spheres were counted under phase microscopy, collected and filtered using a nylon mesh of 70 μm to discard single cells. […]
(§4) The different primary cultures were analyzed with the PGMY09/11 Linear Array (Roche). […]

[2] = tested on: SiHa cervical cancer cell line (HPV 16); assay: Sphere formation assay, SiHa cervical cancer cell line; type: cell-based, human; conditions: incubated with 45 μM cisplatin
Description: as §1
as §2, with “(CerCa). CerCa 1, CerCa 2 and CerCa 3 (transformed with Human Papillomavirus 45) were obtained from patient biopsies.” for “(CerCa).”
as §3

[3] = tested on: CerCa 2 primary cervical tumor cells (HPV 16); assay: Sphere formation assay, primary cervical tumor cells CerCa 2; type: cell-based, human; conditions: incubated with 45 μM cisplatin
Description: as §1, §2, §3, §4

[4] = tested on: CerCa 1 primary cervical tumor cells (HPV 16); assay: Sphere formation assay, primary cervical tumor cells CerCa 1; type: cell-based, human; conditions: incubated with 45 μM cisplatin
Description: as §1, §2, §3, §4

B16F10 melanoma cells [5] = assay: Relapse and metastasis after surgical removal of B16F10 melanoma tumors (Example 3); type: in vivo, C57BL/6 mice
Description: One common clinical protocol for melanoma includes surgical resection follow by systemic administration of drugs. Similar protocols are used in the practice of other tumors. In the melanoma model presented in this representative example, B16F10 melanoma cells (100,000 cells in 200 μl of saline) were injected subcutaneously on the back of C57BL/6 mice. About 11 to 12 days post-cell injection, tumors between 700 to 1.000 mm3 developed (a 1,000 mm3 tumor in mice is considered equivalent to a 3,000 cc3 tumor in humans). […] Tumors were surgically resected under anesthesia and the wound washed once with 250 μl containing 100 μg of ASO 1560S or ASO 154. After surgical suture, a bolus of 200 μl saline containing 100 μg of ASO 154 or ASO 1560S was applied into the cavity left by the tumor. Three days post-surgery, mice received on alternative days, 3 intravenous (FIG. 9; 1st, 3rd, 5th arrows on timeline) or 3 intraperitoneal (FIG. 9; 2nd, 4th, 6th arrows on timeline) injections of 250 μl saline containing 100 μg of either ASO 1560S or ASO 154. Tumor growth was measured twice a week with a caliper.
Relapse of tumor growth in mice treated with ASO 154 was observed about 3 days post-surgery and tumor volume of about 1,500 mm3 was reached on about the 25th day post-cell injection (FIG. 9). These mice were euthanized under anesthesia, and the tumor and other organs were fixed and saved for further studies. […] Livers and lungs were analyzed for the presence of metastatic nodules.

RENCA cells [6] = assay: Relapse and survival after surgical removal of RENCA kidney tumors, single post-surgery treatment (Example 4); type: in vivo, mice; conditions: in liposomes
Description: 100,000 RENCA cells (ATCC® CRL-2947™ Mus musculus kidney renal adenocarcina) were injected subcutaneously at day 0. […] The animals were sutured and […] injected at the site of the removed tumor with 100 μg of ASO 154 (FIG. 11, squares) or ASO 1560S (FIG. 11, triangles), both formulated in liposomes, in 250 μl. No further treatment was given.

RENCA cells [7] = assay: Relapse and survival after surgical removal of RENCA kidney tumors, intraperitoneal/intravenous treatment (Example 5); type: in vivo, mice; conditions: day 60; 25 μg ip and iv injections in liposomes
Description: 100,000 RENCA cells (ATCC® CRL-2947™ Mus musculus kidney renal adenocarcina) were injected subcutaneously on day 0 in 8 mice. […] Tumors of all animals were removed by surgery and divided in 2 groups. […] Post-suture, a bolus of 250 μl was intraperiotoneally injected in the place of where tumor had grown: the control group was injected with ASO 154 and the treated group with ASO 1560S. On days 13, 15, 17 and 19, intraperitoneal injections of 25 μg ASO 154 (FIG. 12, circles) or 25 μg ASO 1560S (FIG. 12, squares) formulated in liposomes were injected in a volume of 250 μl. On days 14, 16 and 18, the mice were injected intravenously with the same protocol. On day 22, all control animals had tumors larger than 1,200 mm3 and were sacrificed. On day 60, all animals treated with ASO 1560S had no tumors and were still alive (FIG. 12).

B16F10 melanoma cells [8] = assay: Relapse and survival after surgical removal of B16F10 melanoma tumors, intraperitoneal treatment (Example 6); type: in vivo, mice; conditions: 25 and 50 μg intraperitoneal injections post-surgery
[9] = tested on: MB49 cells (mouse bladder cancer cells); assay: Tumors and survival after surgical removal of MB49 bladder carcinoma tumors (Example 7); type: in vivo, mice
Description: Twelve mice were injected subcutaneously with a 100,000 MB49 cells (mouse bladder cancer cells). After 15 days mice had tumors of an average diameter of 800 mm3. Tumors were surgically removed (day 0) and a bolus of 200 μl containing 100 μg of ASO 154 (control) or ASO 1560S (active drug) was injected at the site of the surgery. Three days post-surgery mice were divided in 2 groups and treated intraperitoneally or intravenously with 100 μl injections containing ASO 154 (control group) or ASO 1560S (treated group) as indicated in FIG. 14. Only one mouse treated intraperitoneally with ASO 1560S developed a tumor.

[10] = FIG. 14, intraperitoneal or intravenous administration
[11] = treated intravenously after 100 μg bolus at surgery site

Molecule | Sphere formation [1] | Sphere formation [2] | Sphere formation [3] | Sphere formation [4] | Relapse of tumor growth after surgery (B16F10 melanoma cells [5]; 100 μg wound wash, 100 μg bolus, then 3 iv and 3 ip injections of 100 μg) | Detectable tumors (B16F10 melanoma cells [5]; 130 days post-cell injection) | Metastatic nodules in lungs and liver (B16F10 melanoma cells [5]; organs collected at euthanasia) | Survival (RENCA cells [6]; day 61) | Tumors / tumor relapse after surgery (RENCA cells [6]; up to day 61, 100 μg wash and 100 μg injection) | Survival (RENCA cells [7]) | Tumors / relapse after surgery (RENCA cells [7]) | Survival (B16F10 melanoma cells [8]) | Tumor relapse after surgery (B16F10 melanoma cells [8]) | Survival [9, 10] | Tumors [9, 10] | Number of mice that developed a tumor ([9]; treated intraperitoneally after 100 μg bolus at surgery site) | Survival [9, 11] | Tumors [9, 11]
N.N.[Cl][Pt][Cl] [cisplatin] | no effect; also recorded: resistant to cisplatin treatment | abolished sphere formation | abolished sphere formation | abolished sphere formation | – | – | – | – | – | – | – | – | – | – | – | – | – | –
ASO 1560S: antisense oligonucleotide targeted to the mouse ASncmtRNAs (SEQ ID NO: 198) (antisense CACCCTCTAACCTAGAGAAG; all phosphorothioate, sugars by position and methylation of C not given here) | – | – | – | – | No relapse; also recorded: prevented or suppressed cancer relapse; also recorded: absence of tumor relapse | without the presence of detectable tumors | lacked the presence of metastatic nodules; also recorded: absence of metastatic nodules | still alive; also recorded: complete survival | no tumors; also recorded: absence of tumor relapse | still alive | no tumors; also recorded: absence of relapse | complete survival | absence of the intradermal melanoma tumor relapse | complete survival | absence of tumors | one | full survival | remained without tumors
